Values joined by “and” are separate entries in the source; they are usually repeats but may differ in a detail not shown here. Equal values may be shown once.
Legend:
[1] = biological target: T1, CD73 (Homo sapiens (Human), UniProt P21589); experiment: MDA-MB-231 Cell Based CD73 Activity Assay; conditions: MDA-MB-231-GFP cells, RPMI medium with 10% human plasma, 200 uM AMP
Procedure: MDA-MB-231 Cell Based CD73 Activity Assay
MDA-MB-231-GFP cells were seeded in 384-well plates (Greiner 781946) at a density of 10000 cells per well in 50 μL of RPMI medium with 10% HP (human plasma). Cells were plated into assay plate with compounds pre-spotted, for an overnight compound treatment. 50 μL of 400 μM AMP (final concentration 200 μM) using a Bio-tek dispenser. Plates were incubated for 100 mins. […] The samples were run using Rapid fire.

[2] = biological target: T1, CD73; experiment: CD73 Biochemical IC50 Assay; conditions: CD73 0.3 nM, AMP 15 uM, 25 mM Tris pH 7.4, 5 mM MgCl2
Procedure: CD73 Biochemical IC50 Assay
Compound serial dilutions were pre-spotted into Thermo Nunc assay plate. 50 μL CD73 enzyme buffer (CD73 purchased from R&D system=0.6 nM, 25 mM Tris, pH 7.4, 5 mM MgCl2) was added into the assay plate and incubated for 15 mins. […] The samples were run using Rapid fire.

T1 sequence (P21589 27-574): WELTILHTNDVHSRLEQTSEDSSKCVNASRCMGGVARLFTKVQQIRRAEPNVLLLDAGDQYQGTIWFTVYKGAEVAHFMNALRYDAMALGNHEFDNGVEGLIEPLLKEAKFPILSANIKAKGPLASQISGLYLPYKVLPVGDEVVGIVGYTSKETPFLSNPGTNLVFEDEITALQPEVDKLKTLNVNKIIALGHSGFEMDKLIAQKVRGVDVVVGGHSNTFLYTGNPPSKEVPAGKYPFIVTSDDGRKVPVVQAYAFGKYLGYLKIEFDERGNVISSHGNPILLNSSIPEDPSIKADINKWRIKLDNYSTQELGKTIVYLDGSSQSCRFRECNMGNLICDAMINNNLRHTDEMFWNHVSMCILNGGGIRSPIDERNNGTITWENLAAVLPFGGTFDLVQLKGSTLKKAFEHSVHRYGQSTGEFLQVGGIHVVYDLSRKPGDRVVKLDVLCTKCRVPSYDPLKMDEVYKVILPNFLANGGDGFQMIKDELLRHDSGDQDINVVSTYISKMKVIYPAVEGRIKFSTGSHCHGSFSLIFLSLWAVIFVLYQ

Compound | EC50 [1] | IC50 [2]
O=c1[nH]cc(-c2cc(C3CCC(F)(F)CC3)c3nccn3n2)c(=O)[nH]1 [Example 14, 5-(8-(4,4-difluorocyclohexyl)imidazo[1,2-b]pyridazin-6-yl)pyrimidine-2,4(1H,3H)-dione] | 79.2 nM | 301 nM
CC(C)c1cc(-c2c[nH]c(=O)[nH]c2=O)nn2cc(C(F)(F)F)nc12 [Example 15, 5-(8-isopropyl-2-(trifluoromethyl)imidazo[1,2-b]pyridazin-6-yl)pyrimidine-2,4(1H,3H)-dione] | 920 nM | 2350 nM
CC(C)c1cc(-c2c[nH]c(=O)[nH]c2=O)nn2cnnc12 [Example 16, 5-(8-isopropyl-[1,2,4]triazolo[4,3-b]pyridazin-6-yl)pyrimidine-2,4(1H,3H)-dione] | 333 nM | 362 nM
O=c1[nH]cc(-c2cc(Cc3ccccc3)c3nccn3n2)c(=O)[nH]1 [Example 17, 5-(8-benzylimidazo[1,2-b]pyridazin-6-yl)-1H-pyrimidine-2,4-dione] | 3670 nM | > 2500 nM
O=c1[nH]cc(-c2cc(C3(C(F)(F)F)CC3)c3nccn3n2)c(=O)[nH]1 [Example 18, 5-[8-[1-(trifluoromethyl)cyclopropyl]imidazo[1,2-b]pyridazin-6-yl]-1H-pyrimidine-2,4-dione] | 20400 nM | > 2500 nM
O=c1[nH]cc(-c2cc(C3(C(F)(F)F)CC3)c3nc(C4(C(F)(F)F)CC4)cn3n2)c(=O)[nH]1 [Example 19, 5-[2,8-bis[1-(trifluoromethyl)cyclopropyl]imidazo[1,2-b]pyridazin-6-yl]-1H-pyrimidine-2,4-dione] | > 25000 nM | > 2500 nM
O=c1[nH]cc(-c2cc(CS(=O)(=O)c3ccccc3)c3nccn3n2)c(=O)[nH]1 [Example 20, 5-[8-(benzenesulfonylmethyl)imidazo[1,2-b]pyridazin-6-yl]-1H-pyrimidine-2,4-dione] | > 25000 nM | > 2500 nM
O=c1[nH]cc(-c2cc(CS(=O)(=O)c3ccccc3)c3nc(CS(=O)(=O)c4ccccc4)cn3n2)c(=O)[nH]1 [Example 21, 5-[2,8-bis(benzenesulfonylmethyl)imidazo[1,2-b]pyridazin-6-yl]-1H-pyrimidine-2,4-dione] | > 25000 nM | > 2500 nM
O=c1[nH]cc(-c2ccc3nccn3n2)c(=O)[nH]1 [Example 23, 5-(imidazo[1,2-b]pyridazin-6-yl)pyrimidine-2,4(1H,3H)-dione] | > 25000 nM | > 2500 nM
O=c1[nH]cc(-c2cc(OC3CC3)c3nccn3n2)c(=O)[nH]1 [Example 24, 5-(8-cyclopropoxyimidazo[1,2-b]pyridazin-6-yl)pyrimidine-2,4(1H,3H)-dione] | 1230 nM | 1260 nM
CC(C)Oc1cc(-c2c[nH]c(=O)[nH]c2=O)nn2ccnc12 [Example 25, 5-(8-isopropoxyimidazo[1,2-b]pyridazin-6-yl)pyrimidine-2,4(1H,3H)-dione] | 361 nM and 429 nM | 657 nM and 557 nM
O=c1[nH]cc(-c2cc(OCc3ccccc3)c3nccn3n2)c(=O)[nH]1 [Example 26] | 184 nM | 161 nM
O=c1[nH]cc(-c2cc(C3CC3)n3nccc3n2)c(=O)[nH]1 [Example 27, 5-(7-cyclopropylpyrazolo[1,5-a]pyrimidin-5-yl)pyrimidine-2,4(1H,3H)-dione] | 145 nM | 90.4 nM
Cc1nc2c(C3CCC(F)(F)CC3)cc(-c3c[nH]c(=O)[nH]c3=O)nn2n1 [Example 55, 5-(8-(4,4-difluorocyclohexyl)-2-methyl-[1,2,4]triazolo[1,5-b]pyridazin-6-yl)pyrimidine-2,4(1H,3H)-dione] | 872 nM | > 2500 nM
N#Cc1cnc2c(C3CCC(F)(F)CC3)cc(-c3c[nH]c(=O)[nH]c3=O)nn12 [Example 56, 8-(4,4-difluorocyclohexyl)-6-(2,4-dioxo-1,2,3,4-tetrahydropyrimidin-5-yl)imidazo[1,2-b]pyridazine-3-carbonitrile] | 4460 nM | > 2500 nM
Cc1cnc2c(C3CCC(F)(F)CC3)cc(-c3c[nH]c(=O)[nH]c3=O)nn12 [Example 57, 5-(8-(4,4-difluorocyclohexyl)-3-methylimidazo[1,2-b]pyridazin-6-yl)pyrimidine-2,4(1H,3H)-dione] | 3300 nM | > 2500 nM
O=c1[nH]cc(-c2cc(COCc3ccccc3)c3nccn3n2)c(=O)[nH]1 [Example 58, 5-(8-((benzyloxy)methyl)imidazo[1,2-b]pyridazin-6-yl)pyrimidine-2,4(1H,3H)-dione] | 704 nM | 548 nM

Continued, values first:

EC50 [1] | IC50 [2] | Compound
71.7 nM | 65 nM | O=c1[nH]cc(-c2cc(N3CC(c4ccccc4)C3)c3nccn3n2)c(=O)[nH]1 [Example 59, 5-(8-(3-phenylazetidin-1-yl)imidazo[1,2-b]pyridazin-6-yl)pyrimidine-2,4(1H,3H)-dione]
4470 nM | > 2500 nM | O=c1[nH]cc(-c2cc(N3CCC3c3ccccc3)c3nccn3n2)c(=O)[nH]1 (stereo not shown) [Example 66, 5-(8-(2-phenylazetidin-1-yl)imidazo[1,2-b]pyridazin-6-yl)pyrimidine-2,4(1H,3H)-dione]
47.8 nM | 55.4 nM | O=c1[nH]cc(-c2cc(C3CC3)c3ncc(F)n3n2)c(=O)[nH]1 [Example 69, 5-(8-cyclopropyl-3-fluoro-imidazo[1,2-b]pyridazin-6-yl)-1H-pyrimidine-2,4-dione]
649 nM | 1490 nM | O=c1[nH]cc(-c2cc(-c3ccc(NCC4CC4)cc3)c3nccn3n2)c(=O)[nH]1 [Example 71, 5-[8-[4-(cyclopropylmethylamino)phenyl]imidazo[1,2-b]pyridazin-6-yl]-1H-pyrimidine-2,4-dione]
136 nM | 126 nM | O=c1[nH]cc(-c2cc(C3CC3)c3nc(C4CC4)cn3n2)c(=O)[nH]1 [Example 75, 5-(2,8-dicyclopropylimidazo[1,2-b]pyridazin-6-yl)-1H-pyrimidine-2,4-dione]
1230 nM | 1920 nM | O=c1[nH]cc(-c2cc(-n3cccn3)c3nccn3n2)c(=O)[nH]1 [Example 78, 5-(8-pyrazol-1-ylimidazo[1,2-b]pyridazin-6-yl)-1H-pyrimidine-2,4-dione]
2.93 nM | 9.16 nM | O=c1[nH]cc(-c2cc([C@H]3C[C@@H]3c3ccc(F)cc3F)c3ncc(F)n3n2)c(=O)[nH]1 [Example 88, 5-[8-[(1S,2S)-2-(2,4-difluorophenyl)cyclopropyl]-3-fluoro-imidazo[1,2-b]pyridazin-6-yl]-1H-pyrimidine-2,4-dione]
248 nM | 211 nM | CC1(C)CCN(c2cc(-c3c[nH]c(=O)[nH]c3=O)nn3ccnc23)CC1 [Example 89, 5-[8-(4,4-dimethyl-1-piperidyl)imidazo[1,2-b]pyridazin-6-yl]-1H-pyrimidine-2,4-dione]
1.79 nM | 9.91 nM | O=c1[nH]cc(-c2cc([C@H]3C[C@@H]3c3ccc(F)c(F)c3)c3ncc(F)n3n2)c(=O)[nH]1 [Example 90, 5-[8-[(1S,2S)-2-(3,4-difluorophenyl)cyclopropyl]-3-fluoro-imidazo[1,2-b]pyridazin-6-yl]-1H-pyrimidine-2,4-dione]
62.2 nM | 104 nM | CC1(C)CCN(c2cc(-c3c[nH]c(=O)[nH]c3=O)nc3ccnn23)C1 [Example 91, 5-(7-(3,3-dimethylpyrrolidin-1-yl)pyrazolo[1,5-a]pyrimidin-5-yl)pyrimidine-2,4(1H,3H)-dione]
76 nM | 132 nM | O=c1[nH]cc(-c2cc(N3CC4CCC(C4)C3)c3nccn3n2)c(=O)[nH]1 [Example 94, 5-(8-(3-azabicyclo[3.2.1]octan-3-yl)imidazo[1,2-b]pyridazin-6-yl)pyrimidine-2,4(1H,3H)-dione]
66.6 nM | 773 nM | O=c1[nH]cc(-c2cc(C3CC3)c3nc(-c4ccccc4C(F)(F)F)cn3n2)c(=O)[nH]1 [Example 96, 5-(8-cyclopropyl-2-(2-(trifluoromethyl)phenyl)imidazo[1,2-b]pyridazin-6-yl)pyrimidine-2,4(1H,3H)-dione]
2050 nM | > 2500 nM | O=c1[nH]cc(-c2cc(C3CC3)c3nc(-c4ccncc4)cn3n2)c(=O)[nH]1 [Example 97, 5-(8-cyclopropyl-2-(pyridin-4-yl)imidazo[1,2-b]pyridazin-6-yl)pyrimidine-2,4(1H,3H)-dione]
258 nM | 473 nM | O=c1[nH]cc(-c2cc(C3CC3)c3nc(-c4cccnc4)cn3n2)c(=O)[nH]1 [Example 102, 5-(8-cyclopropyl-2-(pyridin-3-yl)imidazo[1,2-b]pyridazin-6-yl)pyrimidine-2,4(1H,3H)-dione]
45.1 nM | 70.8 nM | O=c1[nH]cc(-c2cc(C3CC3)c3nc(-c4ccccn4)cn3n2)c(=O)[nH]1 [Example 103, 5-(8-cyclopropyl-2-(pyridin-2-yl)imidazo[1,2-b]pyridazin-6-yl)pyrimidine-2,4(1H,3H)-dione]
